Assay results: patent US8461186B2, “Use of N-piperidine derivatives for the treatment of neurodegenerative pathologies” (Medestea Research & Production S.p.A., priority 2004, dated 2013)

System: mean arterial blood pressure (MAP) and heart rate (HR) in the rat
Assay: Mean arterial blood pressure (MAP) and heart rate (HR) in myocardial ischaemia and reperfusion
Assay type: in vivo
Conditions: for HR: in beats/min (unit assumed); for MAP: in mmHg (unit assumed); for mean MAP and HR values versus the I/R group treated with the vehicle alone: rats subjected to I/R; for haemodynamic effects of infusion: sham operations (no LAD occlusion)
Protocol: The rats (twenty per group) were anaesthetized by intraperitoneal injection of chloral hydrate (380 mg/kg) and were then tracheotomized, intubated and ventilated with ambient air by a suitable ventilator; body temperature was kept at 38° C.±1 and the right carotid artery was cannulated and connected to a pressure transducer to monitor the mean arterial blood pressure (MAP).
The coronary artery was occluded by tightening the occluder, a procedure which is correlated with the electrocardiographic and haemodynamic changes (drop in MAP) which are typical of myocardial ischaemia. After 25 minutes of myocardial ischaemia, the occluder was reopened, permitting reperfusion for 2 hours. The heart rate (HR) and MAP were monitored continuously.
The following test groups were considered: a) LAD occlusion (25 minutes) and reperfusion (2 hours) plus administration of the vehicle (saline solution, 3 ml/kg-v-bolus plus 1.8 ml/kg/h) starting 5 minutes after reperfusion and maintained during the reperfusion period; b) LAD occlusion and reperfusion plus administration of MP1002 or MP1001 (10 mg/kg injection in bolus) 5 minutes prior to reperfusion, followed by infusion of 2 mg/kg/h during the reperfusion period; c) sham operation (no LAD occlusion) and infusion of the vehicle; d) sham operation and infusion of MP1002 or MP1001 as described above.
The base haemodynamic results were similar in the various groups considered.

[1] = Sham operation, Occlusion 15 min
[2] = Sham operation, Occlusion 25 min
[3] = Sham operation, Reperfusion 15 min
[4] = Sham operation, Reperfusion 25 min

Structure (SMILES)	HR (I/R, Baseline)	MAP (I/R, Baseline)	HR (I/R, Occlusion 15 min)	MAP (I/R, Occlusion 15 min)	HR (I/R, Occlusion 25 min)	MAP (I/R, Occlusion 25 min)	HR (I/R, Reperfusion 15 min)	MAP (I/R, Reperfusion 15 min)	HR (I/R, Reperfusion 25 min)	MAP (I/R, Reperfusion 25 min)	HR (Sham operation, Baseline)	MAP (Sham operation, Baseline)	HR [1]	MAP [1]	HR [2]	MAP [2]	HR [3]	MAP [3]	HR [4]	MAP [4]	other results
CC1(C)CC(OC(=O)CCCCCCCCC(=O)OC2CC(C)(C)N(O)C(C)(C)C2)CC(C)(C)N1O [MP1002, bis(1-oxyl-2,2,6,6-tetramethyl-4-piperidinyl)decandioate]	438 ± 30	127 ± 14	437 ± 32	121 ± 14	431 ± 24	114 ± 10	427 ± 29	102 ± 11	429 ± 25	97 ± 9	421 ± 26	125 ± 15	420 ± 33	123 ± 16	422 ± 25	120 ± 11	428 ± 26	110 ± 12	426 ± 32	105 ± 9	mean MAP and HR values versus the I/R group treated with the vehicle alone: not significantly different; haemodynamic effects of infusion: no substantial haemodynamic effects
CC1(C)CC(OC(=O)CCCCCCCCC(=O)OC2CC(C)(C)N(O)C(C)(C)C2)CC(C)(C)N1O [MP1001, BIS(1-HYDROXYL-2,2,6,6-TETRAMETHYL-4-PIPERIDINYL)DECANDIOATE]	435 ± 25	125 ± 9	438 ± 31	118 ± 12	430 ± 28	111 ± 13	425 ± 28	100 ± 10	427 ± 26	95 ± 8	422 ± 33	127 ± 16	422 ± 26	125 ± 13	424 ± 48	121 ± 11	427 ± 27	112 ± 8	427 ± 23	107 ± 16	mean MAP and HR values versus the I/R group treated with the vehicle alone: not significantly different; haemodynamic effects of infusion: no substantial haemodynamic effects
